Experimental data reported in patent US4774381A, “Herbicide resistant tobacco” (E. I. Du Pont de Nemours and Company, priority 1985, dated 1988).

What was measured:
[1] = tested on: C3/C3 homozygous mutant cell line; experiment: Callus growth test; type: cell-based, Nicotiana tabacum; conditions: 10 ppb herbicide
Procedure: (§1) Callus growth tests were conducted substantially according to the following procedure. Approximately 50 mg callus tissue, grown on non-selective media, was spread over 7 cm diameter paper filter discs (Whatman No. 1), which were placed on the medium surface of petri dishes containing C1 agar media and varying concentrations of chlorsulfuron. The resulting cultures were incubated for 14 days at 25±1°, under fluorescent lamps programmed to provide a 16-hour photoperiod per day. At the conclusion of the incubation period, tissue was scraped from each filter disc and weighed. The final fresh weights were recorded, and means and standard errors of the means determined for all cases. The significance of differences between responses of individual cell lines to various concentrations of chlorsulfuron was determined at a probability level of 5% by a t-test for populations having different standard deviations, as described by Snedecor, et al., Statistical Methods (Iowa State University Press, Ames, Iowa, (1967), pp. 114-116).
(§2) A series of experiments was performed to investigate further the cross-resistance of various resistant cell lines to other herbicidally-effective sulfonamides. First, several homozygous mutant cell lines were evaluated for resistance to sulfometuron-methyl and chlorsulfuron by callus growth tests, performed substantially similarly to the callus growth experiments previously described. In these experiments, callus cultures were derived from R1 plants, which constitute the progeny produced by self-fertilization of a regenerated plant.

[2] = tested on: C4/C4 homozygous mutant cell line; experiment: Callus growth test; type: cell-based, Nicotiana tabacum; conditions: 10 ppb herbicide
Procedure: as §1, §2

[3] = tested on: Normal (H1) cell line; experiment: Callus growth test; type: cell-based, Nicotiana tabacum; conditions: for % of control fresh weight / Fr. Wt.: 10 ppb herbicide, H1 (Table 4)
Procedure: as §1, §2

[4] = tested on: S1/S1 homozygous mutant cell line; experiment: Callus growth test; type: cell-based, Nicotiana tabacum; conditions: 10 ppb herbicide
Procedure: as §1, §2

[5] = tested on: S4/S4 homozygous mutant cell line; experiment: Callus growth test; type: cell-based, Nicotiana tabacum; conditions: for % of control fresh weight / Fr. Wt.: 10 ppb herbicide, S4/S4 (Table 4)
Procedure: as §1, §2

[6] = tested on: S5/S5 homozygous mutant cell line; experiment: Callus growth test; type: cell-based, Nicotiana tabacum; conditions: 10 ppb herbicide
Procedure: as §1, §2

[7] = tested on: S6/S6 homozygous mutant cell line; experiment: Callus growth test; type: cell-based, Nicotiana tabacum; conditions: 10 ppb herbicide
Procedure: as §1, §2

[8] = tested on: acetolactate synthase (ALS), Isolate 16 (S4/S4) extract; experiment: ALS activity assay in cell extracts; type: biochemical, Nicotiana tabacum; conditions: for Uninhibited activity (%) in the Presence of Chlorsulfuron: Isolate 16 (S4/S4)
Procedure: Cell suspension cultures of normal (H1) and homozygous mutant (Isolate 16) cell lines were washed in C1 liquid medium. After washing, cells were extracted in a 100 mM potassium phosphate buffer (pH 7.5) containing 0.5 mM MgCl2, 1 mM sodium pyruvate, 0.5 mM thiamine pyrophosphate, 10 micromolar flavine-adenine dinucleotide (FAD) and 10 percent (by volume) glycerol. Polyclar AT (BDH Chemicals Ltd) was added to a final concentration of 250 mg per gram fresh weight of tissue. After centrifugation at 27,000xg for 15 minutes at 4°, an equal volume of a saturated solution of amminium sulfate was added to the supernatant fraction. The resultant precipitate (representing a 0 to 50 percent ammonium sulfate fraction) was redissolved in 100 mM potassium phosphate buffer (pH 7.5) containing 0.5 mM MgCl2, 1 mM sodium pyruvate, and salts were removed by passage through a Sephadex G-25 (Pharmacia PD-10) column.
ALS activity was assayed in a total volume of 500 microliters containing 100 microliters of the column eluate, 65 mM potassium phosphate buffer (pH 7.5) containing 10 mM MgCl2, 40 mM sodium pyruvate, 250 micromolar thiamine pyrophosphate, 23 micromolar FAD, and 1, 5, 10, 50, 100, 500 or 1000 ppb chlorsulfuron or sulfometuron-methyl. After incubation at 30° for 90 minutes, 250 microliters of 6N H2 SO4 was added to each assay tube, and the tubes were incubated at 55° for 10 minutes to terminate the enzymatic reaction and achieve complete conversion of acetolactate to acetoin. Acetoin content was then measured by a modification of the procedure described by Westerfield, J. Biol. Chem. 161:495 (1945). To each tube was added sequentially 100 microliters 50 percent NaOH, 150 microliters 0.5 percent creatine, and 150 microliters 5 percent alpha-napthol (in 2.5N NaOH). Color development was accelerated by incubation at 55° for 10 minutes. Tubes were then centrifuged, and the optical density was read at 530 nm. Background optical densities, which were subtracted from the optical density values of the reactions, were determined for each extract from parallel assays to which the enzyme extract was added after the addition of 6N H2 SO4. Protein concentrations were measured with Bio-Rad Protein Assay reagent with bovine serum albumin as a standard. Data points and specific activities, which are set forth below and in FIG. 2, represent the average values of at least three independent determinations. ALS activities are presented in FIG. 2 as percent activity in the absence of herbicide.
Responses to chlorsulfuron were determined for ALS activities in extracts of cells suspension cultures derived from nine individuals that differed with resepct to the S4 mutation. As described above, these individuals were produced by self-fertilization of an S4/+ heterozygote, and their genotypes were established by means of progeny analysis. Callus and plant phenotypes were determined by growth responses of cell cultures and seedlings, respectively, on herbicide-supplemented medium. […] In contrast, all individuals homozygous for the S4 mutation contained a highly resistant form of the enzyme. […] The correlation between both callus and plant phenotype and the response of ALS activity in vitro to the herbicide is both absolute and quantitative.

[9] = tested on: callus cultures derived from plants that carried the S4 mutation; experiment: Callus growth on herbicide-supplemented medium; type: cell-based, Nicotiana tabacum; conditions: herbicide at 5 parts per billion (ppg) (14 nM)
From the text: A plant heterozygous for the S4 mutation was constructed by a series of backcrosses of a plant regenerated from a herbicide-resistant tobacco cell line with plants of the parental variety (N. tabacum cv. Xanthi). Self-fertilization of this heterozygous individual yielded homozygous mutant, heterozygous, and homozygous normal progeny in the ratio of 1 to 2 to 1, respectively, which is expected for segregation of a single semidominant nuclear allele. The genotypes of these progeny plants were confirmed by analysis of a subsequent generation. Callus cultures were established as previously described from several of the genetically defined isolates produced by self-fertilization of the S4/+ heterozygote. […] Cell suspension cultures were initiated from these callus cultures and from the parental haploid cell line (H1) by transferring callus to a liquid C1 medium in which 2,4-dichlorophenoxyacetic acid (2 mg/L) had been substituted for napthaleneacetic acid and from which agar had been omitted. ALS activity was then assayed in extracts prepared from these cell suspension cultures as follows.

[10] = tested on: yeast Saccharomyces cerevisiae; conditions: medium supplementation; cited from earlier work

Row | Compound | % of control fresh weight [1] | Fr. Wt. [1] | % of control fresh weight [2] | Fr. Wt. [2] | % of control fresh weight [3] | Fr. Wt. [3] | % of control fresh weight [4] | Fr. Wt. [4] | % of control fresh weight [5] | Fr. Wt. [5] | % of control fresh weight [6] | Fr. Wt. [6] | % of control fresh weight [7] | Fr. Wt. [7] | growth on supplemented medium [9] | other results
1 | COc1nc(C)nc(NC(=O)NS(=O)(=O)c2ccccc2Cl)n1 [Chlorsulfuron, chlorsulfuron] | 86.7% | 1896 ± 119 | 83.5% | 3453 ± 231 | 1.3% | 33 ± 2 | 11.5% | 309 ± 34 | 96.5% | 3171 ± 260 | 27.5% | 725 ± 95 | 32.1% | 1076 ± 108 | capable of growth | inhibition at 0.028 µM ([5]; Nicotiana tabacum, 10 ppb (28 nM), homozygous mutant cell line, read-out: growth inhibited (percent)): < 5%; Uninhibited activity (%) in the Presence of Chlorsulfuron ([8]; 10 ppb): […]; Uninhibited activity (%) in the Presence of Chlorsulfuron ([8]; 30 ppb): […]; Uninhibited activity (%) in the Presence of Chlorsulfuron ([8]; 100 ppb): […]; concentration inhibiting ALS activity 50 percent ([8]; homozygous mutant extract, not achieved at highest concentration tested, 90 min): […]; IC50 ([8]; homozygous mutant extract, not achieved at highest concentration tested, read-out: concentration inhibiting ALS activity 50 percent): […]
2 | COC(=O)c1ccccc1S(=O)(=O)NC(=O)Nc1nc(C)cc(C)n1 [Sulfometuron-methyl, sulfometuron-methyl] | 62.6% | 1369 ± 63 | 83.9% | 3473 ± 323 | 1.2% | 32 ± 2 | 6.4% | 172 ± 14 | 33.6% | 1105 ± 80 | 13.0% | 344 ± 55 | 26.5% | 887 ± 92 | capable of growth | activity at 0.001 µg/mL ([3]; Nicotiana tabacum, 336 h, sulfometuron-methyl 1 ppb, Normal (H1) (Table 6), read-out: % of fresh weight at 0 ppb): 1.4%; activity at 0.01 µg/mL ([3]; Nicotiana tabacum, 336 h, sulfometuron-methyl 10 ppb, Normal (H1) (Table 6), read-out: % of fresh weight at 0 ppb): 1%; Fr. wt. ([3]; sulfometuron-methyl 1 ppb, Normal (H1) (Table 6)): 39 ± 2 mg; Fr. wt. ([3]; sulfometuron-methyl 10 ppb, Normal (H1) (Table 6)): 29 ± 1 mg; growth of S4/S4 mutant cell line ([5]; 200 ppb sulfometuron-methyl): completely inhibits growth; activity at 0.01 µg/mL ([5]; Nicotiana tabacum, 336 h, sulfometuron-methyl 10 ppb, S4/S4 (Table 6), read-out: % of fresh weight at 0 ppb): 34%; Fr. wt. ([5]; sulfometuron-methyl 10 ppb, S4/S4 (Table 6)): 1105 ± 80 mg; resistance of mutant ALS activity to inhibition ([8]; mutant cell line versus parental activity): more resistant than the parental activity; reversal of growth inhibition [10]: restored by addition of isoleucine, leucine, and valine
